Where two headings read alike, the source gives them in different places.
What was measured:
[1] = below 1 mM GSH, after 6 days
Procedure: Protein Release. GSH mediated release studies were carried out over 6 days. Protein release was measured from 10,000 to 20,000 microspheres into 500 μL PBS in the presence and absence of glutathione. Release was measured with three independent replicates per experimental group. […] Therefore, at each 24-hour time point, glutathione containing buffers were completely replaced. The buffer that was removed was frozen for later analysis. At the completion of the experiment, all frozen samples were thawed and 50 μL of each samples were diluted in PBS and read on a Quantech fluorometer.

thrombin = assay: Kinetics of thrombin cleavage of GST-GFP (SDS-PAGE densitometry); format: biochemical; settings: for Km: read-out: Michaelis-Menten constant (Km) of thrombin to GST-GFP
Procedure: Reaction kinetics were measured by semi-quantitative densitometry of SDS-PAGE gels. Reactions with equivalent concentrations of GST-GFP substrate and varying concentrations of thrombin (0.1, 0.33, 0.75, 1.5, and 3 μM) were incubated at 37° C. for varying amounts of time. In groups where cleavage from microspheres was reported, approximately 10,000 microspheres were used. Reactions were stopped by addition of Laemmli sample buffer (containing SDS) and stored at 4° C. until run on SDS-PAGE. All gels were run with known concentrations of BSA standards. Density measurements were made with NIH imageJ software with gel backgrounds normalized. Each thrombin concentration was run one time, except for […], which was ran in biological triplicate.

S. pyogenes = assay: Bacterial growth inhibition by free proteins (A600); format: cell-based; settings: 10 μM, at 5 hours
Procedure: Bacterial Growth Inhibition. Following digestion with thrombin as described above, GSH-agarose beads (GoldBio, St. Louis, Mo.) were used to separate GST from recombinant melittin. Synthetic melittin and GST-6xHis-melittin underwent a similar process without thrombin or being subjected to GSH-agarose treatment. Overnight cultures of S. pyogenes (ATCC, Manassas, Va., BAA-1633) cells were diluted in chemically defined medium were diluted to approximately 10^8 colony forming units (CFUs), corresponding to an absorbance at 600 nm (A600) of 0.1, and 150 μL distributed into 96-well, optical-bottom plates (Greiner BioOne, Frickenhausen, Germany) for treatment. GST-6xHis-melittin, recombinant melittin, or synthetic melittin (10 μM) were then added and the plate was incubated at 37° C. with shaking using a Biotek Synergy 2 plate reader (Winooski, Vt.). Absorbance (A600) measurements were obtained every ten minutes for 12 hours.

U-87 MG cells = assay: Tumor cell growth inhibition (MTS assay); format: cell-based; settings: 10 μM protein (thrombin 2 U), fusion without thrombin
Procedure: Tumor Cell Growth Inhibition. All proteins were incubated with thrombin at 37° C. for two hours prior to cellular assays. Malignant glioma cells, U-87 MG, (ATCC, Manassas, Va., 3,000 cells/cm^2) were seeded in a 96 well plate together with appropriate treatments in 100 μL DMEM and 10% FCS (Sigma-Aldrich, St. Louis, Mo.). Treatments included a cell only control (untreated), thrombin (2 U), GST (10 μM), GST-6xHis-melittin (10 μM), GST-6xHis-melittin (10 μM) simultaneously with thrombin (2 U), or synthetic melittin (10 μM; GenScript RP20415, Sigma-Aldrich, St. Louis, Mo.). The cells with their respective treatments were incubated at 37° C. in 5% CO2 overnight, approximately 16 hours. The MTS assay (Promega, Madison, Wis., CellTitre96) was performed according to the manufacturer recommendation and incubated for two hours before reading absorbance at 495 nm on a Labsystems Multiskan plus plate reader (Thermo Scientific, Hanover Park, Ill.).

[2] = system: blood vessels per area formed in the hydrogel; assay: Mouse angiogenesis model, subcutaneous hydrogel implants; format: in vivo, mice; settings: GM6001 intraperitoneally 0.1 mg/g once daily for two weeks
Text: PEGDA:GSH hydrogel is loaded with one or more GST-polypeptide fusions having a cleavage site for matrix metalloprotease-9 between GST and the polypeptide. Matrix metalloprotease-9 (MMP-9) recognizes the cleavage site having the amino acid sequence […] (SEQ ID NO:5). The loaded hydrogel is implanted in a mouse angiogenesis model to assess the bioactivity of the released polypeptides. Particularly, the polypeptides eGFP (i.e., Green Fluorescent Protein), mCherry (Red Fluorescent Protein), and a cell lytic polypeptide having the amino acid sequence […] (SEQ ID NO:3) are examined in this angiogenesis model.
Specifically, mice are administered an intraperitoneal injection of ketamine and xylazine (100 mg/kg and 5 mg/kg, respectively), and an injection site is rubbed with 75% ethanol. Anesthesia is indicated by a toe pinch reflex test. All instruments are autoclaved prior to use and standard aseptic technique is followed for the procedure as detailed below. […]
After 14 days, the inserted hydrogels are removed for whole mount immunostaining to determine the number of blood vessels per area formed in the hydrogel. […] Particularly, after one-hour of blocking, the hydrogel is incubated with anti-CD31 antibody overnight at 4 degrees Celsius to allow for fluorescence imaging of the endothelium formed about and/or within the hydrogel. […]

[3] = target: glutathione s-transferase; settings: read-out: dissociation constant of glutathione from glutathione s-transferase; cited from earlier work

GST-GFP
protein remaining associated with the particles [1]: more than 80% | apparent Vmax of thrombin mediated release (thrombin): 0.13 µg/min | Km (thrombin; GST-GFP in association with PEGDA-GSH microspheres): ~0.3 µM | Km (thrombin; free GST-GFP): ~0.18 µM

recombinant melittin: melittin cleaved by thrombin from purified recombinant GST-6xHis-melittin
growth of S. pyogenes (S. pyogenes): almost completely inhibited the growth

CC[C@H](C)[C@H](NC(=O)CN)C(=O)NCC(=O)N[C@@H](C)C(=O)N[C@H](C(=O)N[C@@H](CC(C)C)C(=O)N[C@@H](CCCCN)C(=O)N[C@H](C(=O)N[C@@H](CC(C)C)C(=O)N[C@H](C(=O)N[C@H](C(=O)NCC(=O)N[C@@H](CC(C)C)C(=O)N1CCC[C@H]1C(=O)N[C@@H](C)C(=O)N[C@@H](CC(C)C)C(=O)N[C@H](C(=O)N[C@@H](CO)C(=O)N[C@@H](Cc1c[nH]c2ccccc12)C(=O)N[C@H](C(=O)N[C@@H](CCCCN)C(=O)N[C@@H](CCCNC(=N)N)C(=O)N[C@@H](CCCCN)C(=O)N[C@@H](CCCNC(=N)N)C(=O)N[C@@H](CCC(N)=O)C(=O)N[C@@H](CCC(N)=O)C(N)=O)[C@@H](C)CC)[C@@H](C)CC)[C@@H](C)O)[C@@H](C)O)C(C)C)C(C)C [synthetic melittin, melittin, reference compound]
growth of S. pyogenes (S. pyogenes): almost completely inhibited the growth | survival of U-87 MG cells (U-87 MG cells): 15%

CNC(=O)[C@H](Cc1c[nH]c2ccccc12)NC(=O)[C@@H](CC(=O)NO)CC(C)C [GM6001]
vessel growth in the hydrogel [2]: limited vessel growth

N[C@@H](CCC(=O)N[C@@H](CS)C(=O)NCC(=O)O)C(=O)O [glutathione]
Kd [3]: 22 µM
